Assay [1] addresses T1, 3-hydroxy-3-methylglutaryl-coenzyme A synthase 1 (HMGCS1) (Homo sapiens, UniProt Q01581).
T1 sequence (Q01581 1-520): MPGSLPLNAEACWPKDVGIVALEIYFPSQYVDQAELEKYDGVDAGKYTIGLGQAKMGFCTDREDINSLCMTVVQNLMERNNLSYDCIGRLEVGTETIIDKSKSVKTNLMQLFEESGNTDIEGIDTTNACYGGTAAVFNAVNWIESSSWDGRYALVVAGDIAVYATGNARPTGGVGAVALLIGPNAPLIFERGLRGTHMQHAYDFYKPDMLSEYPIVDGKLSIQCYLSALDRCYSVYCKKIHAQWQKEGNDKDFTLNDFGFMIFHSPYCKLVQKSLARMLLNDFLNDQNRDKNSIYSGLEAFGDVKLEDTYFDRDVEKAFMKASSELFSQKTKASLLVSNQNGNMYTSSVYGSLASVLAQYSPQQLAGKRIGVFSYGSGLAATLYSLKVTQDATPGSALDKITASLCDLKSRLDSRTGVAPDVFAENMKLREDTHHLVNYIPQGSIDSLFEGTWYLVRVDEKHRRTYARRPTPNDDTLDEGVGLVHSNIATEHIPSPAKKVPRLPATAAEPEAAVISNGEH
As to the kind of experiment: Glu-C MS/MS of adduct on recombinant HMGCS1; dose-dependent competition with HG-FL in gel; competitive chemoproteomics in HEK293T. It is filed as binding. More on the design: recombinant HMGCS1 (pET60b-HMGCS1-TEV-6His).

The target of assay [2] is T1, 3-hydroxy-3-methylglutaryl-coenzyme A synthase 1 (HMGCS1). As to the kind of experiment: competitive affinity purification TMT mass spectrometry and immunoblot in HEK293T cells. Type of assay: cell-based. More on the design: endogenous HMGCS1 in HEK293T cells.

Consider `CC(=C\C(=O)O)/C=C(\C)C[C@H](C)CCCC[C@H]1OC(=O)[C@@H]1CO` [HG, Hymeglusin], for which the “Glu-C MS/MS of adduct on recombinant HMGCS1; dose-dependent competition with HG-” value in assay [1] is “Mass spectrometry analysis of recombinant HMGCS1, after incubation with HG, further confirmed the modification of C129 by HG”. `CC(=C\C(=O)NCCOCCOCCNC(=O)CCCC[C@@H]1SC[C@@H]2NC(=O)N[C@@H]21)/C=C(\C)C[C@H](C)CCCC[C@H]1OC(=O)[C@@H]1CO` [HG-biotin, Hymeglusin-biotin]: the “competitive affinity purification TMT mass spectrometry and immunoblot in HEK293” value in assay [2] is reported as “An orthogonal immunoblotting assay confirmed the strong enrichment of HMGCS1 by HG-biotin in DMSO pre-treated cells”.

Values taken from PMC12514577, “Activity-based probes and chemical proteomics uncover the biological impact of targeting HMG-CoA Synthase 1 in the mevalonate pathway” (The Journal of Biological Chemistry, 2025).
